{"source": "ChEMBL document CHEMBL4118185", "about": "“Kakeromamide A, a new cyclic pentapeptide inducing astrocyte differentiation isolated from the marine cyanobacterium Moorea bouillonii” (Bioorg Med Chem Lett, 2018)", "key": {"P388": {"system": "P388", "experiment": "Cytotoxicity against mouse P388 cells at 10 uM after 72 hrs by MTT assay", "type": "functional, cell-based"}, "[1]": {"experiment": "Cytotoxicity against mouse neuronal stem cells at 2.5 to 10 after 72 hrs", "type": "cell-based"}, "Mus musculus [2]": {"organism": "Mus musculus", "experiment": "Induction of differentiation of mouse neuronal stem cells into astrocytes after 72 hrs by Hoechst 33342 staining based immunofluorescence assay", "type": "functional"}, "HeLa": {"system": "HeLa", "experiment": "Cytotoxicity against human HeLa cells after 72 hrs by MTT assay", "type": "functional, cell-based"}, "Mus musculus [3]": {"organism": "Mus musculus", "experiment": "Suppression of differentiation of mouse neuronal stem cells into neurons at 2.5 to 10 uM after 72 hrs by NeuO-Hoechst 33342 staining-based microscopic method", "type": "functional"}}, "note": "Active and inactive are the calls of the source. The calls are words filed in the database; no cut-off is given here."}
{"smiles": "CCC[C@H]1NC(=O)c2csc(n2)[C@H](C(C)C)NC(=O)[C@H](Cc2ccc(OC)cc2)N(C)C(=O)[C@H](Cc2ccc(OC)cc2)N(C)C(=O)[C@H](C(C)C)NC(=O)[C@H]1C", "values": [{"measurement": "Activity", "setting": "P388", "value": "inactive"}, {"measurement": "Activity", "setting": "[1]", "value": "Non-Toxic"}, {"measurement": "Activity", "setting": "Mus musculus [2]", "value": "Dose-dependent effect"}, {"measurement": "IC50", "setting": "HeLa", "value": 10, "unit": "µM"}, {"measurement": "Activity", "setting": "Mus musculus [3]", "value": "Active"}]}
